Tested on: epithelial-based cancer cell lines (GDSC)
Assay: Cell Line Persistence Curve of cisplatin IC50 in the GDSC dataset, by CisSig score cohort
Details: cisplatin concentration approximately 5
From the text: FIG. 11C compares the distribution of IC50 between cohorts of GDSC cell lines in this top and bottom quintile of CisSig score. We are terming this plot a “Cell Line Persistence Curve”, which resembles a Kaplan-Meier survival curve, but uses IC50 in place of survival time for cell lines. […] For example, when cisplatin concentration reaches approximately 5 approximately 50% of the resistant cohort remains with a greater IC50, while only 20% of the sensitive cohort remains with a greater IC50. In other words, cell lines predicted to be resistant tend to have greater IC50 values and cell lines predicted to be sensitive tend to have lower IC50 values.
The drug response data in the GDSC database was last updated 27 Mar. 2018; this version is referred to as “GDSC2.” Cisplatin drug concentration is reported in μM. Raw viability data were processed using the R package, gdscIC50, where they were normalized with negative controls (media alone) and positive controls (media only wells with no cells). Dose-response curves were fit using a multi-level fixed effect model with a classic sigmoidal curve shape assumed. This model was fitted using all cell line/drug combinations that were screened instead of fitting separate models to individual drug-response series. […]

For `N.N.[Cl][Pt][Cl]` [cisplatin], the “proportion of the cohort remaining with a cisplatin IC50 greater than the cisplatin concentration” value (resistant cohort (bottom quintile of CisSig score)) was “approximately 50%” and the “proportion of the cohort remaining with a cisplatin IC50 greater than the cisplatin concentration” value (sensitive cohort (top quintile of CisSig score)) was 20%.

— patent US20220235421A1, “DETECTING AND TREATING CISPLATIN SENSITIVE CANCER” (The Cleveland Clinic Foundation, priority 2021, published 2022)
